Measured values: ChEMBL document CHEMBL1201862, “PubChem BioAssay data set” (2004)
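Method: 48-hour compound exposure of cells in 96-well plates, five concentrations, linear interpolation of endpoints. GI50 marks 50% less growth.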 The source made the active and inactive calls. Cut-off read from the data, not from the text of the source: active = GI50 up to about 1.1 µM and inactive = higher.

Key:
Assay in all cases: growth of human tumour cells (NCI), 48 h
A549 = test system: A549
CAKI-1 = test system: CAKI-1
COLO 205 = test system: COLO 205
EKVX = test system: EKVX
HCT-116 = test system: HCT-116
HOP-62 = test system: HOP-62
HOP-92 = test system: HOP-92
HT-29 = test system: HT-29
IGROV-1 = test system: IGROV-1
KM12 = test system: KM12
OVCAR-3 = test system: OVCAR-3
OVCAR-5 = test system: OVCAR-5
SF-268 = test system: SF-268
SF-295 = test system: SF-295
SK-MEL-2 = test system: SK-MEL-2
SK-OV-3 = test system: SK-OV-3
SN12C = test system: SN12C
U-251 = test system: U-251
UACC-62 = test system: UACC-62
MOLT-4 = test system: MOLT-4

Measured: GI50

Cc1cc(Cl)ccc1NC1=NC(=O)C(CC(=O)Nc2cccc(Cl)c2)S1 (configuration not stated)
inactive: A549 20.8 µM | CAKI-1 8.79 µM | COLO 205 72.1 µM | EKVX > 100 µM | HCT-116 24.2 µM | HOP-62 > 100 µM | HOP-92 14.2 µM | HT-29 20.5 µM | IGROV-1 40.3 µM | KM12 35.2 µM | OVCAR-3 43 µM | OVCAR-5 16.1 µM | SF-268 46.9 µM | SF-295 18.5 µM | SK-MEL-2 37.8 µM | SK-OV-3 42.5 µM | SN12C 53.5 µM | U-251 33.2 µM | UACC-62 22.2 µM

CC(=O)NNc1nc(C)c(C(=O)NNC(=O)C(=O)Nc2cccc(C(C)=O)c2)s1
inactive: A549 34.8 µM | CAKI-1 16.4 µM | COLO 205 53.6 µM | EKVX 42.7 µM | HCT-116 31.8 µM | HOP-62 25.3 µM | HOP-92 13.4 µM | HT-29 50.2 µM | IGROV-1 26.5 µM | KM12 24.7 µM | MOLT-4 45.3 µM | OVCAR-5 > 100 µM | SF-268 21.5 µM | SF-295 31.4 µM | SK-MEL-2 36.1 µM | SK-OV-3 18.3 µM | SN12C 15.9 µM | U-251 26.6 µM | UACC-62 16.3 µM

CC1(C)C(=O)c2ccccc2OC1N1CCN(C2Oc3ccccc3C(=O)C2(C)C)CC1 (configuration not stated)
inactive: CAKI-1 > 100 µM | COLO 205 > 100 µM | EKVX > 100 µM | HCT-116 82.4 µM | HOP-62 > 100 µM | HOP-92 > 100 µM | HT-29 > 100 µM | IGROV-1 > 100 µM | KM12 > 100 µM | MOLT-4 > 100 µM | OVCAR-3 > 100 µM | OVCAR-5 > 100 µM | SF-268 > 100 µM | SK-OV-3 > 100 µM | SN12C > 100 µM | U-251 > 100 µM | UACC-62 82.6 µM

COC(=O)C1CC=C(SC(=O)c2ccccc2)N1C(=O)c1ccccc1 (configuration not stated)
inactive: A549 > 100 µM | CAKI-1 > 100 µM | COLO 205 > 100 µM | EKVX > 100 µM | HCT-116 > 100 µM | HOP-62 > 100 µM | HOP-92 > 100 µM | HT-29 > 100 µM | IGROV-1 > 100 µM | KM12 > 100 µM | MOLT-4 > 100 µM | OVCAR-3 > 100 µM | OVCAR-5 > 100 µM | SF-268 > 100 µM | SF-295 > 100 µM | SK-MEL-2 > 100 µM | SK-OV-3 > 100 µM | U-251 > 100 µM | UACC-62 > 100 µM

C=CCN(N=O)C(=O)N(CCC)CCCCC(NC(C)=O)C(=O)NCc1ccccc1 (configuration not stated)
inactive: A549 > 100 µM | CAKI-1 48.2 µM | COLO 205 > 100 µM | EKVX > 100 µM | HOP-62 > 100 µM | HOP-92 23.2 µM | HT-29 29.2 µM | IGROV-1 > 100 µM | KM12 59.4 µM | MOLT-4 22.5 µM | OVCAR-3 75.5 µM | OVCAR-5 > 100 µM | SF-268 > 100 µM | SF-295 > 100 µM | SK-MEL-2 > 100 µM | SK-OV-3 > 100 µM | SN12C > 100 µM | U-251 > 100 µM | UACC-62 > 100 µM

CO/C=C1\OC(=O)C=C1OC
inactive: A549 > 100 µM | CAKI-1 > 100 µM | COLO 205 > 100 µM | EKVX > 100 µM | HCT-116 > 100 µM | HOP-92 > 100 µM | HT-29 > 100 µM | IGROV-1 > 100 µM | KM12 > 100 µM | MOLT-4 > 100 µM | OVCAR-3 > 100 µM | OVCAR-5 > 100 µM | SF-268 > 100 µM | SF-295 > 100 µM | SK-MEL-2 > 100 µM | SK-OV-3 > 100 µM | SN12C > 100 µM | U-251 > 31.6 µM | UACC-62 > 100 µM

c1ccc(COC2(OCc3ccccc3)CC3OC2C2NN=NC32)cc1 (configuration not stated)
inactive: A549 57.1 µM | CAKI-1 44 µM | COLO 205 37.7 µM | HOP-62 41.9 µM | HOP-92 19.6 µM | HT-29 20.8 µM | IGROV-1 28.6 µM | KM12 28.7 µM | MOLT-4 12.5 µM | OVCAR-3 18.3 µM | OVCAR-5 > 100 µM | SF-268 22.1 µM | SF-295 23.1 µM | SK-MEL-2 > 10 µM | SK-OV-3 > 100 µM | SN12C > 10 µM | U-251 18.1 µM | UACC-62 21.3 µM

CC1OC2=N[C@@H]1C(=O)N[C@@H](Cc1ccccc1)C1=N[C@H](C(=O)N[C@@H](Cc3ccccc3)C3=N[C@H](C(=O)N[C@H]2Cc2ccccc2)C(C)O3)C(C)O1 (some centres not stated)
inactive: A549 25.5 µM | CAKI-1 40.4 µM | COLO 205 18.6 µM | EKVX 49.5 µM | HCT-116 23.3 µM | HOP-62 48.3 µM | HOP-92 18.9 µM | HT-29 20 µM | IGROV-1 29.4 µM | KM12 61.1 µM | OVCAR-3 28.2 µM | OVCAR-5 30.3 µM | SF-295 30.7 µM | SK-MEL-2 25.1 µM | SK-OV-3 49.7 µM | SN12C 36 µM | UACC-62 30.8 µM
